Laboratory results from ChEMBL document CHEMBL4602687, “Dual Binding to Orthosteric and Allosteric Sites Enhances the Anticancer Activity of a TRAP1-Targeting Drug” (J Med Chem, 2020).
Numbering of substitutions follows the chain as printed. Active and inactive are the calls of the source.

Legend:
[1] = molecular target: T1, Heat shock protein 75 kDa, mitochondrial (Homo sapiens) (UniProt Q12931); assay: Inhibition of recombinant wild-type human TRAP1 expressed in Escherichia coli BL21 (DE3) assessed as intrinsic fluorescence quenching of tryptophan residues at 10 uM measured after 1 hr by fluorescence spectrophotometric method
T1 sequence (whole entry): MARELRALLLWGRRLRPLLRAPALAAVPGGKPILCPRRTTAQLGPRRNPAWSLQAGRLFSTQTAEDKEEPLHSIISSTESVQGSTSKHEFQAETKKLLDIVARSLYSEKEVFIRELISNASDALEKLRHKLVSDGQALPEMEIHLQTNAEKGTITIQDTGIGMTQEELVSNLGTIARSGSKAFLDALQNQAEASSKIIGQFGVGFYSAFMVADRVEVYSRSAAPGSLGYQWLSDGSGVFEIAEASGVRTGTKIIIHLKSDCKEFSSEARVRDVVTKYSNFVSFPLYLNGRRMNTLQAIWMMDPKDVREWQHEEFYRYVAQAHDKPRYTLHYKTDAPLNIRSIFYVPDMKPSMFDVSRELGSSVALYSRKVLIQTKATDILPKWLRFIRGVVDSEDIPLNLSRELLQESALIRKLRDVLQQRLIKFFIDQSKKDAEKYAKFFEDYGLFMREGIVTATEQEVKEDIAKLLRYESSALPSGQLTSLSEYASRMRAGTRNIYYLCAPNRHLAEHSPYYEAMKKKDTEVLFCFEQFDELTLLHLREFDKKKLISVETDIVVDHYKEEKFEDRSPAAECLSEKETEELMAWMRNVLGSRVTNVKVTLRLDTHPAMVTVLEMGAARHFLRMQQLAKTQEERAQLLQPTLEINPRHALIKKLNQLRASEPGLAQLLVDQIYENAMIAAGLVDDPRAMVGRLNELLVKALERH

[2] = tested on: T2, Heat shock protein 75 kDa, mitochondrial (Homo sapiens), Q12931 [E403K]; assay: Inhibition of recombinant wild-type human TRAP1 E403K mutant ATPase activity expressed in Escherichia coli BL21 (DE3) up to 20 uM preincubated for 0.5 hrs followed by ATP addition and measured after 3 hrs by PiColorLock Gold reagent based colorimetric assay
T2 sequence (whole entry): T1 sequence (whole entry) with E403K

[3] = tested on: T3, Heat shock protein 75 kDa, mitochondrial (Homo sapiens), Q12931 [R114E,E403K]; assay: Stimulation of recombinant […] human TRAP1 R114E/E403K mutant ATPase activity expressed in Escherichia coli BL21 (DE3) up to 20 uM preincubated for 0.5 hrs followed by ATP addition and measured after 3 hrs by PiColorLock Gold reagent based colorimetric assay
T3 sequence (whole entry): T1 sequence (whole entry) with R114E, E403K

[4] = molecular target: T1, Heat shock protein 75 kDa, mitochondrial (Homo sapiens); assay: Inhibition of TRAP1 in human PC3 cells assessed as reduction in SDHB expression at 5 uM measured after 2 to 12 hrs by Western blot analysis; format: cell-based; settings: PC-3
Mus musculus = assay: In vivo inhibition of TRAP1 in nude mouse xenografted with human NCI-H460 cells assessed as increase in CHOP expression at 5 mg/kg, ip administered daily by Western blot analysis; format: functional, organism-based

Nc1ncnc2c1nc(Sc1cc3c(cc1I)OCO3)n2CCCCCCCCCC[P+](c1ccccc1)(c1ccccc1)c1ccccc1
active: inhibition [1] | inhibition [2] | Activity [3] | inhibition [4] | inhibition (Mus musculus)
